# Activity calls are given as the source filed them. The rule behind the calls is not given here.
# How the values were obtained:
# [1] = target: 5-hydroxytryptamine receptor 2A (Homo sapiens) (UniProt P28223); test: Displacement of [3H]-ketanserin from human 5HT2AR expressed in CHO cells incubated for 30 mins by liquid scintillation counting analysis; assay type: cell-based
# [2] = AUC (0 to t) in ICR mouse at 10 mg/kg, po measured up to 24 hrs by HPLC-MS/MS analysis; assay type: ADME, organism-based; design: route oral, dose 10 mg/kg, time <=24; conditions: in vivo
# hERG (KCNH2) = hERG (KCNH2) (Homo sapiens, UniProt Q12809); test: Inhibition of human ERG expressed in CHO cells at 30 uM with holding potential at -80 to -60 mV for 500s followed by raise in potential at +30 mV for 2 sec and subsequent repolarization to -60 mV for 2 sec by whole-cell patch clamp method relative to control; assay type: cell-based; conditions: CHO cells expressing human ERG
# [3] = Drug concentration in Sprague-Dawley rat plasma at 3 mg/kg, iv measured at 20 mins by LC-MS/MS analysis; assay type: ADME, organism-based
# Mus musculus [4] = test: Antidepressant activity in ICR mouse aassessed as inhibition of apomorphine-induced climbing behaviour at 10 mg/kg, ip administered prior to APO challenge and measured after 30 mins; assay type: functional, organism-based
# [5] = target: T1, Glutamate NMDA receptor (Mus musculus) (UniProt P35436+Q91ZU9+Q03391+P35438+Q01097+Q01098+A2AIR5); test: Positive allosteric modulation of C57BL/6 mouse NMDA receptor assessed as fold change in compound potentiated NMDA-induced current relative to NMDA current alone at 30 uM measured after 15 to 30 mins by patch-clamp method; assay type: tissue-based; conditions: Brain, filed as positive allosteric modulator, time 15-30 min
# [6] = MRT in ICR mouse at 3 mg/kg, iv measured up to 24 hrs by HPLC-MS/MS analysis; assay type: ADME, organism-based; conditions: in vivo
# [7] = MRT in ICR mouse at 10 mg/kg, po measured up to 24 hrs by HPLC-MS/MS analysis; assay type: ADME, organism-based; conditions: in vivo
# [8] = target: 5-hydroxytryptamine receptor 1B (Homo sapiens) (UniProt P28222); test: Displacement of [3H]-GR125743 from 5HT1BR (unknown origin) expressed in CHO cells; assay type: cell-based
# [9] = target: 5-hydroxytryptamine receptor 2C (Rattus norvegicus) (UniProt P08909); test: Displacement of [3H]-mesulergine from rat cerebral cortex 5HT2CR incubated for 15 mins by liquid scintillation counting analysis; assay type: tissue-based
# [10] = AUC (0 to t) in Sprague-Dawley rat at 3 mg/kg, iv measured up to 1280 mins by HPLC-MS/MS analysis; assay type: ADME, organism-based; design: route intravenous, dose 3 mg/kg, time <=1280; conditions: in vivo
# [11] = target: Sodium-dependent noradrenaline transporter (Homo sapiens) (UniProt P23975); test: Displacement of [3H]-Nisoxetine from NET (unknown origin)
# [12] = Drug concentration in ICR mouse plasma at 3 mg/kg, iv measured at 2 hrs; assay type: ADME, organism-based
# [13] = Drug concentration in Sprague-Dawley rat brain at 3 mg/kg, iv measured at 80 mins by LC-MS/MS analysis; assay type: ADME, organism-based; conditions: read-out: Ct
# [14] = Tmax in Sprague-Dawley rat at 10 mg/kg, po measured up to 1280 mins by HPLC-MS/MS analysis; assay type: ADME, organism-based; conditions: in vivo
# [15] = Cytotoxicity against African green monkey Vero cells assessed as cell growth inhibition at 120 uM measured after 48 hrs by CCK8 assay relative to control; assay type: cell-based; conditions: chlorocebus sabaeus
# [16] = Drug concentration in ICR mouse brain at 3 mg/kg, iv measured at 2 hrs; assay type: ADME, organism-based; conditions: read-out: Ct
# [17] = Effect on locomotor activity in ICR mouse assessed as hypolocomotion at 10 mg/kg, ip measured after 90 mins; assay type: ADME, organism-based; conditions: in vivo, 1.5 h
# [18] = Volume of distribution at steady state in ICR mouse at 3 mg/kg, iv measured up to 24 hrs by HPLC-MS/MS analysis; assay type: ADME, organism-based; conditions: in vivo, read-out: Vdss
# [19] = Drug concentration in ICR mouse brain at 10 mg/kg, po measured at 2 hrs by LC-MS/MS analysis; assay type: ADME, organism-based; conditions: read-out: Ct
# [20] = Ratio of drug concentration in brain to plasma in Sprague-Dawley rat at 3 mg/kg, iv measured at 80 mins by LC-MS/MS analysis; assay type: ADME, organism-based; conditions: read-out: BPR
# [21] = Cmax in Sprague-Dawley rat at 3 mg/kg, iv measured up to 1280 mins by HPLC-MS/MS analysis; assay type: ADME, organism-based; design: route intravenous, dose 3 mg/kg, time <=1280; conditions: in vivo
# [22] = Clearance in ICR mouse at 3 mg/kg, iv measured up to 24 hrs by HPLC-MS/MS analysis; assay type: ADME, organism-based; conditions: in vivo
# [23] = target: T1, Glutamate NMDA receptor (Mus musculus); test: Positive allosteric modulation of C57BL/6 mouse NMDA receptor assessed as fold change in compound potentiated NMDA-induced current relative to NMDA current alone in presence of saturating glutamate by patch-clamp method; assay type: tissue-based; conditions: Brain, filed as positive allosteric modulator
# [24] = Tmax in ICR mouse at 10 mg/kg, po measured up to 24 hrs by HPLC-MS/MS analysis; assay type: ADME, organism-based; conditions: in vivo
# [25] = […] in ICR mouse assessed as change in behaviour at 30 mg/kg, po administered for 28 days; assay type: organism-based; conditions: in vivo, 672 h, time 28 day
# [26] = AUC (0 to t) in ICR mouse at 3 mg/kg, iv measured up to 24 hrs by HPLC-MS/MS analysis; assay type: ADME, organism-based; design: route intravenous, dose 3 mg/kg, time <=24; conditions: in vivo
# Glutamate NMDA receptor = test: Positive allosteric modulation of C57BL/6 mouse NMDA receptor assessed as potentiation of NMDA-induced current in presence of saturating glutamate by patch-clamp method; assay type: tissue-based, Brain
# [27] = target: Adrenergic receptor alpha-1 (Rattus norvegicus) (UniProt P15823+P23944+P43140); test: Displacement of [3H]-prazosin from rat adrenergic alpha 1 receptor incubated for 60 mins by liquid scintillation counting analysis; assay type: protein assay
# [28] = Drug concentration in ICR mouse brain at 10 mg/kg, po measured at 0.5 hrs by LC-MS/MS analysis; assay type: ADME, organism-based; conditions: read-out: Ct
# [29] = Cmax in ICR mouse at 10 mg/kg, po measured up to 24 hrs by HPLC-MS/MS analysis; assay type: ADME, organism-based; design: route oral, dose 10 mg/kg, time <=24; conditions: in vivo
# [30] = target: 5-hydroxytryptamine receptor 1A (Homo sapiens) (UniProt P08908); test: Displacement of [3H]-8-OH-DPAT from human 5HT1AR expressed in CHO cells incubated for 30 mins by liquid scintillation counting analysis; assay type: cell-based
# [31] = Cytotoxicity against mouse L929 cells assessed as cell growth inhibition at 120 uM measured after 48 hrs by CCK8 assay relative to control; assay type: cell-based
# [32] = Cmax in Sprague-Dawley rat at 10 mg/kg, po measured up to 1280 mins by HPLC-MS/MS analysis; assay type: ADME, organism-based; design: route oral, dose 10 mg/kg, time <=1280; conditions: in vivo
# [33] = Drug concentration in ICR mouse plasma at 10 mg/kg, po measured at 2 hrs by LC-MS/MS analysis; assay type: ADME, organism-based
# Mus musculus [34] = test: Antidepressant activity in ICR mouse assessed as decrease in immobility time at 3 to 10 mg/kg, ip measured after 26 mins by forced swim test; assay type: functional, organism-based; conditions: dose 3-10 mg/kg
# [35] = Ratio of drug concentration in brain to plasma in Sprague-Dawley rat at 3 mg/kg, iv measured at 20 mins by LC-MS/MS analysis; assay type: ADME, organism-based; conditions: read-out: BPR
# Chain of 5-hydroxytryptamine receptor 1B (Homo sapiens) (P28222 whole entry): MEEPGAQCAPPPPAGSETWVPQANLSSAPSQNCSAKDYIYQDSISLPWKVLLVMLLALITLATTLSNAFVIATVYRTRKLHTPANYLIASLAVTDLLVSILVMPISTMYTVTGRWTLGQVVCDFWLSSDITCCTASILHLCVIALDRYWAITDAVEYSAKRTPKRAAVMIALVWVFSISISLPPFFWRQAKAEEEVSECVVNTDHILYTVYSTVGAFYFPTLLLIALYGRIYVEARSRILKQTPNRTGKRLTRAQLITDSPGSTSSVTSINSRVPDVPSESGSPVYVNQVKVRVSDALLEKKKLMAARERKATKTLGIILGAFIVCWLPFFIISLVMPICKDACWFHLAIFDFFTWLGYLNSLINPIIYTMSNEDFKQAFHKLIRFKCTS
# Chain of hERG (KCNH2) (Q12809 whole entry): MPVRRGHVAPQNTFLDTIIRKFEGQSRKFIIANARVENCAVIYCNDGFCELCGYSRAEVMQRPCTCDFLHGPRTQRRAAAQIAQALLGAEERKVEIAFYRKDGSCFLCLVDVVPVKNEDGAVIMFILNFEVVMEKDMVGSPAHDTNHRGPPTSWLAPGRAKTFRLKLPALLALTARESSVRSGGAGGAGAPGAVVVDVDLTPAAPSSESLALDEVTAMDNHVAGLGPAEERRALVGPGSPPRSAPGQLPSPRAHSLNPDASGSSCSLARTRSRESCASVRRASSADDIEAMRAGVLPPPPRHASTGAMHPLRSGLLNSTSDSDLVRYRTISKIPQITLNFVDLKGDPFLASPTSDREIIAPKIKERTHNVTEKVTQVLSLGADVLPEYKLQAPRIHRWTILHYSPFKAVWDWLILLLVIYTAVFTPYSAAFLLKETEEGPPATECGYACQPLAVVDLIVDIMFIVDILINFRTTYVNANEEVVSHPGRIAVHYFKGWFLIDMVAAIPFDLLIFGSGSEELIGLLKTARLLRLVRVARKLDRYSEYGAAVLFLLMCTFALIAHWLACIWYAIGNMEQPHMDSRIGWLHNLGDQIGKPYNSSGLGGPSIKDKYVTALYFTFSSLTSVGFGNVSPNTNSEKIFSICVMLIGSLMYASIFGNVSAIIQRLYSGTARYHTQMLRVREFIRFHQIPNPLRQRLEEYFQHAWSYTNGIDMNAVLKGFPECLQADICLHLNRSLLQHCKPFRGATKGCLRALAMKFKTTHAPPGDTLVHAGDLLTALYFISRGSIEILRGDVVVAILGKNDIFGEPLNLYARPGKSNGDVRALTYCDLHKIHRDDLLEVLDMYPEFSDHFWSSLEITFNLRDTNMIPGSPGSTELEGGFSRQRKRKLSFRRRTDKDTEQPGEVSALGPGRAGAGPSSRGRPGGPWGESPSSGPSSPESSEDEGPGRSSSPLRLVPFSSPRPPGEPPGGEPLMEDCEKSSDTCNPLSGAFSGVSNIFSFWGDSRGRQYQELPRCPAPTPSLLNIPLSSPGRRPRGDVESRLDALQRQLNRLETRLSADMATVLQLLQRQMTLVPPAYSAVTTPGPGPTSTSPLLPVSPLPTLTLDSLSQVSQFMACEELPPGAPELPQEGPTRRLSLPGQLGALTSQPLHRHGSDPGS
# Chain of 5-hydroxytryptamine receptor 1A (Homo sapiens) (P08908 whole entry): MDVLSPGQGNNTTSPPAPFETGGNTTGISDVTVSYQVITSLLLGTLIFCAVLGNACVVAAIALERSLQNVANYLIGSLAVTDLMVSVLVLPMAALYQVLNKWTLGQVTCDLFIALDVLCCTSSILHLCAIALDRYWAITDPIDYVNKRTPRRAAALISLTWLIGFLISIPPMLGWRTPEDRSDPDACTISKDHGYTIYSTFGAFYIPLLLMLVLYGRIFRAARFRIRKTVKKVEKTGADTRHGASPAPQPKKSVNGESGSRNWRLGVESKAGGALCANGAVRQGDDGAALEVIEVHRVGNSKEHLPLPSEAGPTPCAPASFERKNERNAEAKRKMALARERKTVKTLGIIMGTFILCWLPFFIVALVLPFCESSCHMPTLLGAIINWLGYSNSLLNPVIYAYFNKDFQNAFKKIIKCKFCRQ
# Chain of 5-hydroxytryptamine receptor 2C (Rattus norvegicus) (P08909 whole entry): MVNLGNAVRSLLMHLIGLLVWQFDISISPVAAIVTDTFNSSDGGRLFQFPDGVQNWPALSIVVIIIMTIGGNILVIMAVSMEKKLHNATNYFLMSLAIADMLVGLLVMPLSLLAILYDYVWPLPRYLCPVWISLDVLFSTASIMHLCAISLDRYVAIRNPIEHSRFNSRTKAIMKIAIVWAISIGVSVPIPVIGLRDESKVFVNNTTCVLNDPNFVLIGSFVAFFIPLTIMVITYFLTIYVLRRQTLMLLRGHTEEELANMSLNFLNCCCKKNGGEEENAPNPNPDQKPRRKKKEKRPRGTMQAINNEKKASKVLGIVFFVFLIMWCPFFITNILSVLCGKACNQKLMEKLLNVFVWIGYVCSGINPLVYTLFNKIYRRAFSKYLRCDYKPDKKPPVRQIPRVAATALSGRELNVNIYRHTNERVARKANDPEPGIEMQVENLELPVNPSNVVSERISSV
# Chain of Sodium-dependent noradrenaline transporter (Homo sapiens) (P23975 whole entry): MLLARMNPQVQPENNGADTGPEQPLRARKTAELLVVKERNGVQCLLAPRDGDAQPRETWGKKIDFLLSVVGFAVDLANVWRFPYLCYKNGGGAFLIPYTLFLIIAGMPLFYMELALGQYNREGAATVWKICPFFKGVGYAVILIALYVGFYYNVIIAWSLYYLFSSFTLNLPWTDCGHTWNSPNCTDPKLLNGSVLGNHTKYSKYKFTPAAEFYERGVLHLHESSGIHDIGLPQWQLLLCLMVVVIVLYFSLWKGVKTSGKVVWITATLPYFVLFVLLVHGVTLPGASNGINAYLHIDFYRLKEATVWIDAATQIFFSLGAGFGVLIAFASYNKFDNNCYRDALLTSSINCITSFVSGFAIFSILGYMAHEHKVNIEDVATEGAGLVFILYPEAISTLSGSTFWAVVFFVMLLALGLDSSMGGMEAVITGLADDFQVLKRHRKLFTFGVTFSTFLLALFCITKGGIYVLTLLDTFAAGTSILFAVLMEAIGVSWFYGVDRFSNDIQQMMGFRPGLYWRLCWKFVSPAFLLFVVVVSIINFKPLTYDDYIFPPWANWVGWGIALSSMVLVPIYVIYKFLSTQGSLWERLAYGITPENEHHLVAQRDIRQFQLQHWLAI
# Chain of 5-hydroxytryptamine receptor 2A (Homo sapiens) (P28223 whole entry): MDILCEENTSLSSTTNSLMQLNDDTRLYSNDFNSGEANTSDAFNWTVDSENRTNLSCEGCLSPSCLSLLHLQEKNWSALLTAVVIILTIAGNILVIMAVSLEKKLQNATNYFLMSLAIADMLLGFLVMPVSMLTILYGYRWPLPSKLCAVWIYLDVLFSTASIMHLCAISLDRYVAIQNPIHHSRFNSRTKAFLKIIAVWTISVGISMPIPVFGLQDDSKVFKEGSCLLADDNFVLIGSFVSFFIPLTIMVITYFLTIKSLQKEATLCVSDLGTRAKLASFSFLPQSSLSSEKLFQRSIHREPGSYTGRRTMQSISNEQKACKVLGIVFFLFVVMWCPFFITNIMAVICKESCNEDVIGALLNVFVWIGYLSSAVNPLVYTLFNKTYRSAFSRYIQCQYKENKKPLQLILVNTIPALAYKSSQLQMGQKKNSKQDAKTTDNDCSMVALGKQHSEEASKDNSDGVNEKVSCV
structure (smiles),measurement,setting,value
Cc1cc(C)n(Cc2ccc(C(=O)Nc3ccc(Cl)c(Cl)c3)s2)n1,inhibition,[1],inactive
same,AUC(0-t) at 24 h,[2],3050 ng·h/mL
same,"inhibition at 2 s, 30 µM",hERG (KCNH2),35.4%
same,concentration at 20 min,[3],1490 ng/mL
same,Activity,Mus musculus [4],inactive
same,fold change (FC),[5],12.5
same,MRT,[6],4 h
same,MRT,[7],4.2 h
same,inhibition,[8],inactive
same,inhibition,[9],inactive
same,AUC(0-t) at 1280 min,[10],1820 ng·h/mL
same,inhibition,[11],inactive
same,concentration at 2 h,[12],2940 ng/mL
same,concentration at 1.333 h,[13],354 ng/g
same,Tmax,[14],0.555 h
same,"inhibition at 48 h, 120 µM",[15],22.6%
same,concentration at 2 h,[16],85.5 ng/mL
same,Activity,[17],Non-Toxic
same,Vd,[18],8.3 L/kg
same,concentration at 2 h,[19],174 ng/mL
same,Kp at 1.333 h,[20],1.5
same,Cmax,[21],2350 ng/mL
same,clearance,[22],33.3 mL/min/kg
same,fold change (FC),[23],14.3
same,Tmax,[24],0.5 h
same,Activity,[25],Non-Toxic
same,AUC(0-t) at 24 h,[26],1450 ng·h/mL
same,EC50,Glutamate NMDA receptor,2400 nM
same,inhibition,[27],inactive
same,concentration at 0.5 h,[28],281 ng/mL
same,Cmax,[29],760 ng/mL
same,inhibition,[30],inactive
same,"inhibition at 48 h, 120 µM",[31],-4.6%
same,Cmax,[32],190 ng/mL
same,concentration at 2 h,[33],451 ng/mL
same,Activity,Mus musculus [34],Active
same,Kp at 20 min,[35],1.5

# Source: ChEMBL document CHEMBL4834434, “Discovery of Novel and Potent N-Methyl-d-aspartate Receptor Positive Allosteric Modulators with Antidepressant-like Activity in Rodent Models” (J Med Chem, 2021)
